# Assay results reported in patent US20240383923A1, “HETEROARYL DERIVATIVE AND USE THEREOF” (VORONOI INC., priority 2022, published 2024).
# Legend:
# N-87 cancer cells = experiment: Inhibition of N-87 cell proliferation (CellTiter-Glo); assay type: cell-based; conditions: N-87 cells, 72 hours
# Experimental: N-87 cancer cells were cultured by using RPMI-1640 medium with 10% FBS. The N-87 cancer cells were seeded to a white clear bottom 96 well plate (Corning) at 5,000 cells per well 24 hours before the […] cancer cells were treated with Example Compounds. Example Compounds were diluted in dimethylsulfoxide (5-fold diluted, total 11 concentrations) and 0.5 μL each was injected so that the final concentration was […]. For the measurement of living cells, the cells were stored at room temperature for 10 minutes using the CellTiter-Glo cell viability reagent (Promega) after 72 hours after the treatment of Example Compounds, and then the luminescence intensity was measured using the reader (SynergyNeo, Biotek).
# The result value was calculated as a cell growth rate (%) compared to a control group. Graphs were plotted and GI50 values were calculated using the GraphPad Prism version 8.0 program, and the results are shown in Table 18 below.
# BT-474 cancer cells = experiment: Inhibition of BT-474 cell proliferation (CellTiter-Glo); assay type: cell-based; conditions: Homo sapiens, BT-474 cells, 120 hours
# How it was run: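 BT-474 cells in RPMI-1640 with 20% FBS, seeded 48 h before dosing with 11 three-fold dilutions (final 0.2 nM to 10 μM). Viability read by CellTiter-Glo luminescence 120 h after treatment, triplicate tests. GI50 derived from growth rate (%) versus control.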
GI50 (N-87 cancer cells),GI50 (BT-474 cancer cells),SMILES
≤ 0.05 µM,≤ 0.05 µM,"C=CC(=O)N1CCC(Nc2cc3c(Nc4cc(C)c(Oc5ccn6ncnc6c5)cc4OC)ncnc3cc2OC)CC1 [Example 1, 1-(4-((4-((4-([1,2,4]triazolo[1,5-a]pyridin-7-yloxy)-2-methoxy-5-methylphenyl)amino)-7-methoxyquinazolin-6-yl)amino)piperidin-1-yl)prop-2-en-1-one]"
≤ 0.05 µM,≤ 0.05 µM,"C=CC(=O)N1CCC(Nc2cc3c(Nc4cc(Cl)c(Oc5ccccn5)cc4OC)ncnc3cc2OC)CC1 [Example 3, 1-(4-((4-((5-chloro-2-methoxy-4-(pyridin-2-yloxy)phenyl)amino)-7-methoxyquinazolin-6-yl)amino)piperidin-1-yl)prop-2-en-1-one]"
≤ 0.05 µM,≤ 0.05 µM,"C=CC(=O)N1CCC(Oc2cc3c(Nc4cc(Cl)c(Oc5ccn6ncnc6c5)cc4OC)ncnc3cc2OC)CC1 [Example 5, 1-(4-((4-((4-([1,2,4]triazolo[1,5-a]pyridin-7-yloxy)-5-chloro-2-methoxyphenyl)amino)-7-methoxyquinazolin-6-yl)oxy)piperidin-1-yl)prop-2-en-1-one]"
≤ 0.05 µM,≤ 0.05 µM,"C=CC(=O)N1CCC(Oc2cc3c(Nc4cc(Cl)c(Oc5cccc(F)c5)cc4OC)ncnc3cc2OC)C(F)C1 (stereo not shown) [Example 6, 1-(4-((4-((5-chloro-4-(3-fluorophenoxy)-2-methoxyphenyl)amino)-7-methoxyquinazolin-6-yl)oxy)-3-fluoropiperidin-1-yl)prop-2-en-1-one]"
≤ 0.05 µM,≤ 0.05 µM,"C=CC(=O)N1CCC(Oc2cc3c(Nc4ccc(Oc5cccc(F)c5)cc4OC)ncnc3cc2OC)CC1 [Example 7, 1-(4-((4-((4-(3-fluorophenoxy)-2-methoxyphenyl)amino)-7-methoxyquinazolin-6-yl)oxy)piperidin-1-yl)prop-2-en-1-one]"
≤ 0.05 µM,0.05 to 0.1 µM,"C=CC(=O)N1CCC(Oc2cc3c(Nc4ccc(Oc5ccn(-c6cnc(C)c(F)c6)n5)cc4OC)ncnc3cc2OC)CC1 [Example 9, 1-(4-((4-((4-((1-(5-fluoro-6-methylpyridin-3-yl)-1H-pyrazol-3-yl)oxy)-2-methoxyphenyl)amino)-7-methoxyquinazolin-6-yl)oxy)piperidin-1-yl)prop-2-en-1-one]"
≤ 0.05 µM,≤ 0.05 µM,"C=CC(=O)N1CCC(Oc2cc(OC)cc3ncnc(Nc4cc(C)c(Oc5ccn6ncnc6c5)cc4OC)c23)C(F)(F)C1 (stereo not shown) [Example 15, 1-(4-((4-((4-([1,2,4]triazolo[1,5-a]pyridin-7-yloxy)-2-methoxy-5-methylphenyl)amino)-7-methoxyquinazolin-5-yl)oxy)-3,3-difluoropiperidin-1-yl)prop-2-en-1-one]"
≤ 0.05 µM,≤ 0.05 µM,"C=CC(=O)N1CCC(F)(F)C(Oc2cc(OC)cc3ncnc(Nc4cc(C)c(Oc5ccn6ncnc6c5)cc4OC)c23)C1 (stereo not shown) [Example 16, 1-(3-((4-((4-([1,2,4]triazolo[1,5-a]pyridin-7-yloxy)-2-methoxy-5-methylphenyl)amino)-7-methoxyquinazolin-5-yl)oxy)-4,4-difluoropiperidin-1-yl)prop-2-en-1-one]"
–,≤ 0.05 µM,"COc1cc2ncnc(Nc3cc(Br)c(Oc4ccn5ncnc5c4)cc3OC)c2cc1NC(=O)/C(F)=C/[C@H]1CCCN1C [Example 139, (R,Z)—N-(4-((4-([1,2,4]triazolo[1,5-a]pyridin-7-yloxy)-5-bromo-2-methoxyphenyl)amino)-7-methoxyquinazolin-6-yl)-2-fluoro-3-(1-methylpyrrolidin-2-yl)acrylamide]"
–,≤ 0.05 µM,"COc1cc2ncnc(Nc3cc(Br)c(Oc4ccn5ncnc5c4)cc3OC)c2cc1NC(=O)/C(F)=C\[C@H]1CCCN1C [Example 140, (R,E)-N-(4-((4-([1,2,4]triazolo[1,5-a]pyridin-7-yloxy)-5-bromo-2-methoxyphenyl)amino)-7-methoxyquinazolin-6-yl)-2-fluoro-3-(1-methylpyrrolidin-2-yl)acrylamide]"
–,≤ 0.05 µM,"COc1cc(Oc2ccn3ncnc3c2)c(C)cc1Nc1ncnc2ccc(NC(=O)/C(F)=C/[C@H]3CCCN3C)c(Cl)c12 [Example 141, (R,Z)—N-(4-((4-([1,2,4]triazolo[1,5-a]pyridin-7-yloxy)-2-methoxy-5-methylphenyl)amino)-5-chloroquinazolin-6-yl)-2-fluoro-3-(1-methylpyrrolidin-2-yl)acrylamide]"
–,> 0.5 µM,"COc1cc2ncnc(Nc3cc(C)c(Oc4ccn5ncnc5c4)cc3OC)c2cc1NC(=O)/C(C#N)=C\C(C)(C)N1CCN(C2COC2)CC1 [Example 144, (Z)—N-(4-((4-([1,2,4]triazolo[1,5-a]pyridin-7-yloxy)-2-methoxy-5-methylphenyl)amino)-7-methoxyquinazolin-6-yl)-2-cyano-4-methyl-4-(4-(oxetan-3-yl)piperazin-1-yl)pent-2-enamide]"
–,0.1 to 0.5 µM,"C=C(C(=O)Nc1cc2c(Nc3cc(C)c(Oc4ccn5ncnc5c4)cc3OC)ncnc2cc1OC)n1cccn1 [Example 147, N-(4-((4-([1,2,4]triazolo[1,5-a]pyridin-7-yloxy)-2-methoxy-5-methylphenyl)amino)-7-methoxyquinazolin-6-yl)-2-(1H-pyrazol-1-yl)acrylamide]"
–,≤ 0.05 µM,"[2H]C([2H])([2H])Oc1cc(Oc2ccn3ncnc3c2)c(C)cc1Nc1ncnc2cc(OC)c(NC(=O)/C=C/[C@H]3CCCN3C)cc12 [Example 148, (R,E)-N-(4-((4-([1,2,4]triazolo[1,5-a]pyridin-7-yloxy)-2-(methoxy-d3)-5-methylphenyl)amino)-7-methoxyquinazolin-6-yl)-3-(1-methylpyrrolidin-2-yl)acrylamide]"
–,≤ 0.05 µM,"[2H]C([2H])([2H])Oc1cc(Oc2ccn3ncnc3c2)c(C)cc1Nc1ncnc2cc(OC)c(NC(=O)/C(F)=C/[C@H]3CCCN3C)cc12 [Example 149, (R,Z)—N-(4-((4-([1,2,4]triazolo[1,5-a]pyridin-7-yloxy)-2-(methoxy-d3)-5-methylphenyl)amino)-7-methoxyquinazolin-6-yl)-2-fluoro-3-(1-methylpyrrolidin-2-yl)acrylamide]"
–,≤ 0.05 µM,"[2H]C([2H])([2H])Oc1cc(Oc2ccn3ncnc3c2)c(C)cc1Nc1ncnc2cc(OC)c(NC(=O)/C(F)=C\[C@H]3CCCN3C)cc12 [Example 150, (R,E)-N-(4-((4-([1,2,4]triazolo[1,5-a]pyridin-7-yloxy)-2-(methoxy-d3)-5-methylphenyl)amino)-7-methoxyquinazolin-6-yl)-2-fluoro-3-(1-methylpyrrolidin-2-yl)acrylamide]"
–,≤ 0.05 µM,"[2H]C([2H])([2H])Oc1cc(Oc2ccn3ncnc3c2)c(F)cc1Nc1ncnc2cc(OC)c(NC(=O)/C(F)=C/[C@H]3CCCN3C)cc12 [Example 151, (R,Z)—N-(4-((4-([1,2,4]triazolo[1,5-a]pyridin-7-yloxy)-5-fluoro-2-(methoxy-d3)phenyl)amino)-7-methoxyquinazolin-6-yl)-2-fluoro-3-(1-methylpyrrolidin-2-yl)acrylamide]"
–,≤ 0.05 µM,"[2H]C([2H])([2H])Oc1cc(Oc2ccn3ncnc3c2)c(F)cc1Nc1ncnc2cc(OC)c(NC(=O)/C(F)=C\[C@H]3CCCN3C)cc12 [Example 152, (R,E)-N-(4-((4-([1,2,4]triazolo[1,5-a]pyridin-7-yloxy)-5-fluoro-2-(methoxy-d3)phenyl)amino)-7-methoxyquinazolin-6-yl)-2-fluoro-3-(1-methylpyrrolidin-2-yl)acrylamide]"
–,≤ 0.05 µM,"[2H]C([2H])([2H])N1CCC[C@@H]1/C=C/C(=O)Nc1cc2c(Nc3cc(C)c(Oc4ccn5ncnc5c4)cc3OC)ncnc2cc1OC [Example 153, (R,E)-N-(4-((4-([1,2,4]triazolo[1,5-a]pyridin-7-yloxy)-2-methoxy-5-methylphenyl)amino)-7-methoxyquinazolin-6-yl)-3-(1-(methyl-d3)pyrrolidin-2-yl)acrylamide]"
–,≤ 0.05 µM,"[2H]C([2H])([2H])N1CCC[C@@H]1/C=C(\F)C(=O)Nc1cc2c(Nc3cc(C)c(Oc4ccn5ncnc5c4)cc3OC)ncnc2cc1OC [Example 154, (R,Z)—N-(4-((4-([1,2,4]triazolo[1,5-a]pyridin-7-yloxy)-2-methoxy-5-methylphenyl)amino)-7-methoxyquinazolin-6-yl)-2-fluoro-3-(1-(methyl-d3)pyrrolidin-2-yl)acrylamide]"
–,≤ 0.05 µM,"[2H]C([2H])([2H])N1CCC[C@@H]1/C=C(\F)C(=O)Nc1cc2c(Nc3cc(F)c(Oc4ccn5ncnc5c4)cc3OC)ncnc2cc1OC [Example 155, (R,Z)—N-(4-((4-([1,2,4]triazolo[1,5-a]pyridin-7-yloxy)-5-fluoro-2-methoxyphenyl)amino)-7-methoxyquinazolin-6-yl)-2-fluoro-3-(1-(methyl-d3)pyrrolidin-2-yl)acrylamide]"
–,≤ 0.05 µM,"[2H]C([2H])([2H])N1CCC[C@@H]1/C=C(\F)C(=O)Nc1cc2c(Nc3cc(Cl)c(Oc4ccn5ncnc5c4)cc3OC)ncnc2cc1OC [Example 156, (R,Z)—N-(4-((4-([1,2,4]triazolo[1,5-a]pyridin-7-yloxy)-5-chloro-2-methoxyphenyl)amino)-7-methoxyquinazolin-6-yl)-2-fluoro-3-(1-(methyl-d3)pyrrolidin-2-yl)acrylamide]"
–,≤ 0.05 µM,"[2H]C([2H])([2H])N1CCC[C@@H]1/C=C(/F)C(=O)Nc1cc2c(Nc3cc(F)c(Oc4ccn5ncnc5c4)cc3OC)ncnc2cc1OC [Example 157, (R,E)-N-(4-((4-([1,2,4]triazolo[1,5-a]pyridin-7-yloxy)-5-fluoro-2-methoxyphenyl)amino)-7-methoxyquinazolin-6-yl)-2-fluoro-3-(1-(methyl-d3)pyrrolidin-2-yl)acrylamide]"
